Experimental data from patent US20230381144A1, “COMPOSITIONS AND METHODS FOR TREATMENT OF PAIN” (SYNVENTA LLC, priority 2019, published 2023).

Tests used:
[1] = Radio-telemetry recording of core body temperature in conscious rats; format: in vivo, Sprague-Dawley rat
Procedure: A laparotomy is performed.
One week later, drugs tests are conducted.
FIGS. 2-4 all show an increase in core body temperature approaching and at the zero time point. Those skilled in the art would readily appreciate that this increase is an artifact in the study associated with the required handling of the animals to effectuate the dosing.

[2] = cited from earlier work
[3] = 0.003 mg/kg and 0.01 mg/kg, i.p.; male and female rats
Procedure: Adult male and female Sprague-Dawley are implanted with radio-telemetry transmitters for monitoring blood pressure and core body temperature. Radio-telemetry transmitter (DSI HD-S10) implantation is performed under sterile condition. Long-acting buprenorphine (1 mg/kg/day, SC) is administered prior to anesthesia for postoperative pain relief. Rats are anesthetized with 5% isoflurane and kept on 2% isoflurane to maintain a stable level of anesthesia. Body temperature is maintained during surgery using a heating pad. A laparotomy is performed. The catheter tip of the telemetry transmitter is secured with a 4-0 silk suture in the abdominal cavity. The body of the telemetry transmitter is placed in the abdominal cavity and secured to the abdominal wall. Approximately 100 μL of 0.25% marcaine is applied directly to the muscle incision, and the skin is then closed with a 5-0 Vicryl absorbable suture placed subcuticularly. After recovery from anesthesia, rats are returned to their home cages placed on DSI receivers.
After one week of recovery, rats are habituated to the drug administration procedure over three separate sessions. One week later, drugs tests are conducted. […]

Structure (SMILES): CC(C)(C)c1ccc2c(c1)CC[C@H]2NC(=O)Nc1cccc2[nH]ncc12 [ABT-102, 1-[(1R)-5-tert-butyl-2,3-dihydro-1H-inden-1-yl]-3-(1H-indazol-4-yl)urea]
- increase in body temperature above vehicle ([1]; conscious, telemetry-instrumented rat, ABT-102 3 and 10 mg/kg, p.o., FIG. 2): up to 1.0 °C

Structure (SMILES): CC(=O)Nc1nc2c(Oc3cc(-c4ccc(C(F)(F)F)cc4)ncn3)cccc2s1 [AMG 517, N-(4-((6-(4-(trifluoromethyl)phenyl)pyrimidin-4-yl)oxy)benzo[d]thiazol-2-yl)acetamide]
- temperature elevations ([2]; Phase 1b study, reason the study was halted): unexpectedly high temperature elevations
- analgesic effect ([2]; review of the data for the 17 subjects enrolled): no clear analgesic effect

Structure (SMILES): Cc1cccc([C@H](C)c2cnc[nH]2)c1C [dexmedetomidine]
- effect of dexmedetomidine on its own (FIG. 5, mean arterial blood pressure) [3]: free from causing hypothermic effects
- effect on ABT-102-induced hyperthermia at the lowest tested dose ([1]; dexmedetomidine 0.003 mg/kg in combination with ABT-102, FIG. 4): able to neutralize ABT-102-induced hyperthermia
- effect on core body temperature ([1]; dexmedetomidine alone, 0.003 mg/kg, FIG. 3): no effect
- effect on ABT-102-induced increase in core body temperature ([1]; dexmedetomidine in combination with ABT-102 5 mg/kg, p.o., FIG. 4, p<0.0001): prevented hyperthermic effects
